Reference: the supplement of paper PMC10307832

Key:
Assay in all cases: relative viability (nuclei count vs DMSO), 5 days (fraction); higher = more cells survive
[1] = test system: NCI-H1993
How it was run: (§1)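 Medians of duplicate plates are given as relative viability. That measure is the nuclei count in treated wells divided by the count in vehicle wells. Counts were taken on 4× images of lung cancer cell lines in 1536-well plates, 5 days after pin-tool dosing the day after seeding with one drug alone or a fixed anchor-drug dose plus five library-drug doses (not always all listed) in √10 steps.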

[2] = test system: NCI-H2126
How it was run: as §1

[3] = test system: NCI-H2009
How it was run: as §1

[4] = test system: PC-14
How it was run: as §1

[5] = test system: SK-MES-1
How it was run: as §1

[6] = test system: LU99A
How it was run: as §1

[7] = test system: HCC-366
How it was run: as §1

[8] = test system: HOP-62
How it was run: as §1

[9] = test system: LXF-289
How it was run: as §1

[10] = test system: LC-2-ad
How it was run: as §1

[11] = test system: HCC-827
How it was run: as §1

[12] = test system: NCI-H522
How it was run: as §1

[13] = test system: HCC-15
How it was run: as §1

[14] = test system: PC-3 [JPC-3]
How it was run: as §1

[15] = test system: COR-L23
How it was run: as §1

[16] = test system: NCI-H2087
How it was run: as §1

[17] = test system: CAL-12T
How it was run: as §1

[18] = test system: HARA
How it was run: as §1

[19] = test system: NCI-H2170
How it was run: as §1

[20] = test system: LCLC-97TM1
How it was run: as §1

[21] = test system: HCC-44
How it was run: as §1

[22] = test system: COR-L 105
How it was run: as §1

COCC1(CO)C(=O)C2CCN1CC2 (stereo not drawn) [PRIMA-1MET] + Nc1nc2[nH]cc(CCc3ccc(C(=O)N[C@@H](CCC(=O)O)C(=O)O)cc3)c2c(=O)[nH]1 [Pemetrexed] (partner 0.2 µM)
relative viability ([1]; first compound 0.2 µM): 0.592
relative viability ([1]; first compound 2 µM): 0.592
relative viability ([1]; first compound 6.325 µM): 0.534
relative viability ([1]; first compound 20 µM): 0.557
relative viability ([2]; first compound 0.2 µM): 0.657
relative viability ([2]; first compound 0.6325 µM): 0.614
relative viability ([2]; first compound 2 µM): 0.609
relative viability ([2]; first compound 6.325 µM): 0.699
relative viability ([2]; first compound 20 µM): 0.67
relative viability ([3]; first compound 0.2 µM): 0.973
relative viability ([3]; first compound 0.6325 µM): 1.03
relative viability ([3]; first compound 2 µM): 1.03
relative viability ([3]; first compound 6.325 µM): 0.96
relative viability ([3]; first compound 20 µM): 0.435
relative viability ([4]; first compound 0.2 µM): 0.124
relative viability ([4]; first compound 0.6325 µM): 0.148
relative viability ([4]; first compound 2 µM): 0.114
relative viability ([4]; first compound 6.325 µM): 0.148
relative viability ([4]; first compound 20 µM): 0.0292
relative viability ([5]; first compound 0.2 µM): 1.08
relative viability ([5]; first compound 0.6325 µM): 0.896
relative viability ([5]; first compound 2 µM): 0.901
relative viability ([5]; first compound 6.325 µM): 0.92
relative viability ([5]; first compound 20 µM): 0.929
relative viability ([6]; first compound 0.2 µM): 0.191
relative viability ([6]; first compound 0.6325 µM): 0.161
relative viability ([6]; first compound 2 µM): 0.201
relative viability ([6]; first compound 6.325 µM): 0.179
relative viability ([6]; first compound 20 µM): 0.187
relative viability ([7]; first compound 0.2 µM): 0.187
relative viability ([7]; first compound 0.6325 µM): 0.203
relative viability ([7]; first compound 2 µM): 0.156
relative viability ([7]; first compound 6.325 µM): 0.184
relative viability ([7]; first compound 20 µM): 0.0889
relative viability ([8]; first compound 0.2 µM): 0.407
relative viability ([8]; first compound 0.6325 µM): 0.377
relative viability ([8]; first compound 2 µM): 0.36
relative viability ([8]; first compound 6.325 µM): 0.377
relative viability ([8]; first compound 20 µM): 0.122
relative viability ([9]; first compound 0.2 µM): 0.967
relative viability ([9]; first compound 0.6325 µM): 0.891
relative viability ([9]; first compound 2 µM): 1.09
relative viability ([9]; first compound 6.325 µM): 0.954
relative viability ([9]; first compound 20 µM): 0.875
relative viability ([10]; first compound 0.2 µM): 0.26
relative viability ([10]; first compound 0.6325 µM): 0.301
relative viability ([10]; first compound 2 µM): 0.268
relative viability ([10]; first compound 6.325 µM): 0.273
relative viability ([10]; first compound 20 µM): 0.259
relative viability ([11]; first compound 0.2 µM): 0.221
relative viability ([11]; first compound 0.6325 µM): 0.144
relative viability ([11]; first compound 2 µM): 0.239
relative viability ([11]; first compound 6.325 µM): 0.554
relative viability ([11]; first compound 20 µM): 0.275
relative viability ([12]; first compound 0.2 µM): 0.789
relative viability ([12]; first compound 0.6325 µM): 0.927
relative viability ([12]; first compound 2 µM): 1.01
relative viability ([12]; first compound 6.325 µM): 0.946
relative viability ([12]; first compound 20 µM): 0.423
relative viability ([13]; first compound 0.2 µM): 0.213
relative viability ([13]; first compound 0.6325 µM): 0.214
relative viability ([13]; first compound 2 µM): 0.212
relative viability ([13]; first compound 6.325 µM): 0.21
relative viability ([13]; first compound 20 µM): 0.217
relative viability ([14]; first compound 0.2 µM): 1.06
relative viability ([14]; first compound 0.6325 µM): 0.975
relative viability ([14]; first compound 2 µM): 1.04
relative viability ([14]; first compound 6.325 µM): 1.14
relative viability ([14]; first compound 20 µM): 1.04
relative viability ([15]; first compound 0.2 µM): 0.184
relative viability ([15]; first compound 0.6325 µM): 0.199
relative viability ([15]; first compound 2 µM): 0.191
relative viability ([15]; first compound 6.325 µM): 0.192
relative viability ([15]; first compound 20 µM): 0.0784
relative viability ([16]; first compound 0.6325 µM): 0.639
relative viability ([16]; first compound 2 µM): 0.68
relative viability ([16]; first compound 6.325 µM): 0.61
relative viability ([16]; first compound 20 µM): 0.563
relative viability ([17]; first compound 0.2 µM): 1.18
relative viability ([17]; first compound 0.6325 µM): 1.19
relative viability ([17]; first compound 2 µM): 1.19
relative viability ([17]; first compound 6.325 µM): 1.36
relative viability ([17]; first compound 20 µM): 0.13
relative viability ([18]; first compound 0.2 µM): 0.278
relative viability ([18]; first compound 0.6325 µM): 0.232
relative viability ([18]; first compound 2 µM): 0.209
relative viability ([18]; first compound 6.325 µM): 0.243
relative viability ([18]; first compound 20 µM): 0.247
relative viability ([19]; first compound 0.2 µM): 0.271
relative viability ([19]; first compound 0.6325 µM): 0.25
relative viability ([19]; first compound 2 µM): 0.274
relative viability ([19]; first compound 6.325 µM): 0.258
relative viability ([19]; first compound 20 µM): 0.268
relative viability ([20]; first compound 0.2 µM): 0.193
relative viability ([20]; first compound 0.6325 µM): 0.198
relative viability ([20]; first compound 2 µM): 0.182
relative viability ([20]; first compound 6.325 µM): 0.197
relative viability ([20]; first compound 20 µM): 0.21
relative viability ([21]; first compound 0.2 µM): 0.748
relative viability ([21]; first compound 0.6325 µM): 0.641
relative viability ([21]; first compound 2 µM): 0.681
relative viability ([21]; first compound 6.325 µM): 0.676
relative viability ([21]; first compound 20 µM): 0.607
relative viability ([22]; first compound 0.2 µM): 1.3
relative viability ([22]; first compound 0.6325 µM): 1.17
relative viability ([22]; first compound 2 µM): 1.22
relative viability ([22]; first compound 6.325 µM): 1.1
relative viability ([22]; first compound 20 µM): 0.229
